Reference: PubChem BioAssay (NCI)
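Results reflect a 48-hour exposure of cells in 96-well plates to compound at five concentrations. GI50 is the concentration that inhibits growth by half. TGI denotes the concentration required for complete inhibition of growth.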

Columns and labels:
Assay in all cases: NCI tumour cell line growth inhibition, 48 h
[1] = tested on: SF-295 CNS
[2] = tested on: HL-60(TB) leukemia
[3] = tested on: HS 578T breast
[4] = tested on: RPMI-8226 leukemia
[5] = tested on: MALME-3M melanoma
[6] = tested on: 786-0 renal
[7] = tested on: UO-31 renal
[8] = tested on: NCI-H522 lung
[9] = tested on: SK-OV-3 ovarian
[10] = tested on: SR leukemia

| SMILES | GI50 [1] [µM] | TGI [1] [µM] | GI50 [2] [µM] | TGI [2] [µM] | GI50 [3] [µM] | TGI [3] [µM] | GI50 [4] [µM] | TGI [4] [µM] | GI50 [5] [µM] | TGI [5] [µM] | GI50 [6] [µM] | TGI [6] [µM] | GI50 [7] [µM] | TGI [7] [µM] | GI50 [8] [µM] | TGI [8] [µM] | GI50 [9] [µM] | TGI [9] [µM] | TGI [10] [µM] | GI50 [10] [µM] |
| --- | --- | --- | --- | --- | --- | --- | --- | --- | --- | --- | --- | --- | --- | --- | --- | --- | --- | --- | --- | --- |
| Cc1c(-c2nnc(-c3ccc(F)cc3)o2)nnn1-c1ccnc2c(C(F)(F)F)cccc12 | 29.6 | > 100 | > 100 | > 100 | 15.5 | 53.9 | 30.6 | > 100 | 41.7 | > 100 | 40.6 | > 100 | 60.3 | > 100 | 84.7 | > 100 | 30 | > 100 |  |  |
| CCOC(=O)C(=O)Nc1c(C)cccc1C(C)C |  | > 100 |  | > 100 |  |  |  | > 100 |  | > 100 |  | > 100 |  | > 100 |  | > 100 |  | > 100 | > 100 |  |
| CCOC(=O)C(C(=O)OCC)=C1N[C@H](C(=O)OCC)CS1 |  | > 100 |  | > 100 |  |  |  | > 100 |  | > 100 |  | > 100 |  | > 100 |  | > 100 |  |  | > 100 |  |
| C=C(C)[C@@H]1CC[C@]2(C(=O)O)CC[C@]3(C)[C@H](CC[C@@H]4[C@@]5(C)C/C(=C/c6ccc(OC)cc6)C(=O)C(C)(C)[C@@H]5CC[C@]43C)[C@@H]12 | 1.71 | 4.45 |  |  | 2.65 | 9.03 |  |  | 1.84 | 4.29 | 2.83 | 12.1 | 1.45 | 4.42 | 1.97 | 6.65 | 3.29 | 16.1 |  |  |
| COc1ccccc1C(N)c1ccccc1 (stereo unspecified) |  | > 100 |  | > 100 |  |  |  | > 100 |  | > 100 |  | > 100 |  | > 100 |  | > 100 |  | > 100 |  |  |
| COc1ccc(CCN2CCC(Nc3nc4ccccc4n3Cc3ccc(F)cc3)CC2)cc1 | 1.65 | 3.26 | 1.96 | 3.81 |  |  | 1.78 | 4.73 | 1.72 | 3.4 | 1.46 | 2.77 | 1.29 | 2.62 | 2.37 | 4.91 | 1.9 | 3.44 | 3.83 | 1.58 |
| CCC(c1ccc2cc(O)ccc2c1)C(C)(C)C(=O)O (stereo unspecified) |  | > 100 |  |  |  | > 100 |  | > 100 |  | > 100 |  | > 100 |  | > 100 |  | > 100 |  | > 100 | > 100 |  |
| Cc1ccc(NC2=C(Cl)C(=O)N(Cc3ccccc3)C2=O)cc1Cl | 7.66 | 22.5 |  |  | 10.6 | 33.9 | 0.454 | 3.36 | 0.598 | 9.14 | 6.39 | 21 | 3.33 | 15.9 | 2.97 | 15.4 | 19.4 | > 100 | 5.75 | 1.19 |
| CCOC(=O)N[C@@H]1C2CC(=O)C(O2)[C@@H]1OC (stereo partly specified) |  | > 100 |  | > 100 |  |  |  | > 100 |  | > 100 |  | > 100 |  | > 100 |  | > 100 |  | > 100 | > 100 |  |
| COC(=O)CS(=O)c1ccccc1 (stereo unspecified) |  | > 100 |  | 37 |  |  |  | 52.2 |  | > 100 |  | 72.4 |  | 22.1 |  | 30.1 |  | > 100 |  |  |
| N#CCCSC(=S)C1CCCC1=N (stereo unspecified) |  | > 100 |  | > 100 |  | > 100 |  | > 100 |  | > 100 |  | > 100 |  | > 100 |  | > 100 |  | > 100 |  |  |
| c1ccc(CN2CCCCC(Sc3ccccc3)CC2)cc1 (stereo unspecified) |  | > 100 |  | 46.3 |  |  |  | 38.9 |  | 38.2 |  | 31.6 |  | 28.8 |  |  |  | > 100 | 37.7 |  |
| COc1ccc(C(=O)C(C(=O)C(=O)NC2C3CC4CC(C3)CC2C4)c2ccc(OC)cc2)cc1 (stereo unspecified) |  | > 100 |  | > 100 |  |  |  | > 100 |  | > 100 |  | > 100 |  | > 100 |  | > 100 |  | > 100 | > 100 |  |
| N#Cc1c(N)nc(NCc2ccccc2)c(C#N)c1-c1ccccc1Cl | 12.6 | 76.2 |  |  | 11.3 | 43 | 48.6 | > 100 | 21 | 90.2 | 13.4 | 36.2 | 38.1 | > 100 | 12.6 | 55 | 62.7 | > 100 | 32.8 | 10.8 |
| CCCCCCCCCCCCCCCCCC(=O)OCC(C[As](=O)(O)O)OC(=O)CCCCCCCCCCCCCCCCC (stereo unspecified) |  | > 100 |  | > 100 |  |  |  | 80.8 |  | > 100 |  | > 100 |  | > 100 |  | > 100 |  | 50 | 38.9 |  |
| COc1cccc(Cn2c(-c3nonc3NC(C)=O)nc3ccccc32)c1 | 1.85 | 78.7 |  |  | 1.87 | 7.24 | 5.34 | > 100 | 3.31 | 43.8 | 10.4 | > 100 | 3.72 | > 100 | 2.95 | 90.3 | 3.07 | > 100 | > 100 | 4.14 |
| O=C(NC1CCCCC1)NS(=O)(=O)c1ccc(-n2nc3c(c2-c2ccc(Cl)cc2)Cc2ccccc2-3)cc1 | 11.3 | 28.9 | 4.28 | 14.6 | 5.03 | 39.2 | 2.11 | 5.43 |  |  | 5.07 | > 100 | 3.64 | 8.67 | 18.3 | 52.5 | 31.6 | > 100 |  |  |
